Measured values as given in publication PMC9090415, “Discovery of small molecule inhibitors of Plasmodium falciparum apicoplast DNA polymerase” (Journal of Enzyme Inhibition and Medicinal Chemistry, 2022).

Target: P. falciparum apicoplast DNA polymerase (Pf-apPOL) (Plasmodium falciparum, UniProt Q8ILY1)
Experiment: Fluorescence-based high-throughput DNA polymerase assay (molecular beacon), primary screen and dose-response;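 for % inhibition ApPOL 90': test concentration in µM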;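 for % inhibition apPOL 180': test concentration in µM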
Type: biochemical
Details: for DNA Pol: 90 min, 10 µM; for IC50: supplemental file 2, sheet IC50 nontoxic compounds, Pf-apPOL
Method in brief: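 Single-point screening used 10 µM compound with 20 nM polymerase, 20 nM hairpin substrate and 6 µM dNTPs for 90 min at 25 °C. Confirmatory titrations (2.5–80 µM) followed fluorescence at three times, and IC50 was derived from a fit including a cooperativity term n.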

[1] = primary screen value of the 186 hits, unit not given

Chain of P. falciparum apicoplast DNA polymerase (Pf-apPOL) (Q8ILY1 entry or part of it): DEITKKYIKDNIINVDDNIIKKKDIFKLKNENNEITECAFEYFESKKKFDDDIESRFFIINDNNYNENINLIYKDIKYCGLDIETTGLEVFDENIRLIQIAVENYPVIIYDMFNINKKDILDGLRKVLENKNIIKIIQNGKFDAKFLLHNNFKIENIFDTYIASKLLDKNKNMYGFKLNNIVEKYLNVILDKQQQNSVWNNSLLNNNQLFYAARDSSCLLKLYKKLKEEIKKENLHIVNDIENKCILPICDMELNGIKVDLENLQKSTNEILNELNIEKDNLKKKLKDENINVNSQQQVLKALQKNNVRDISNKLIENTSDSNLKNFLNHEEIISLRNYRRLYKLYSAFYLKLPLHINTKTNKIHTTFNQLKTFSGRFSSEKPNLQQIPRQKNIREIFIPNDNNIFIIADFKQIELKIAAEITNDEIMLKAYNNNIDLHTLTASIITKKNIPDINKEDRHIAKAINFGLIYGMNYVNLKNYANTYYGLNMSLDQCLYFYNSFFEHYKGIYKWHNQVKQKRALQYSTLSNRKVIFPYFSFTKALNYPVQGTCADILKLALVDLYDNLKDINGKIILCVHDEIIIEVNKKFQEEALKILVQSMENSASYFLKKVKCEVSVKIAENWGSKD

SMILES: COc1ccc(NC(=O)Cn2ccc3c(=O)[nH]ccc32)cc1Cl [Molecule 10, COc1ccc(cc1Cl)NC(=O)Cn1ccc2c1cc[nH]c2=O]
- % inhibition Apo pol 10' (DRC-1, concentration 2.5): 12.1098%
- % inhibition Apo pol 10' (DRC-1, concentration 5): 41.0198%
- % inhibition Apo pol 10' (DRC-1, concentration 10): 64.5653%
- % inhibition Apo pol 10' (DRC-1, concentration 20): 78.092%
- % inhibition Apo pol 10' (DRC-1, concentration 40): 83.862%
- % inhibition Apo pol 10' (DRC-1, concentration 80): 74.6013%
- % inhibition Apol 90' (DRC-1, 90', concentration 2.5): 1.658%
- % inhibition Apol 90' (DRC-1, 90', concentration 5): 26.4531%
- % inhibition Apol 90' (DRC-1, 90', concentration 10): 48.8726%
- % inhibition Apol 90' (DRC-1, 90', concentration 20): 69.5261%
- % inhibition Apol 90' (DRC-1, 90', concentration 40): 86.3942%
- % inhibition Apol 90' (DRC-1, 90', concentration 80): 83.0123%
- % inhibition apPOL 180' (DRC-1, 180', concentration 2.5): -4.328%
- % inhibition apPOL 180' (DRC-1, 180', concentration 5): 12.6648%
- % inhibition apPOL 180' (DRC-1, 180', concentration 10): 30.7094%
- % inhibition apPOL 180' (DRC-1, 180', concentration 20): 56.2759%
- % inhibition apPOL 180' (DRC-1, 180', concentration 40): 85.5137%
- % inhibition apPOL 180' (DRC-1, 180', concentration 80): 84.9384%
- % inhibition Apo pol 5' (DRC-2, 5', concentration 2.5): 22%
- % inhibition Apo pol 5' (DRC-2, 5', concentration 5): 37%
- % inhibition Apo pol 5' (DRC-2, 5', concentration 10): 48%
- % inhibition Apo pol 5' (DRC-2, 5', concentration 20): 44%
- % inhibition Apo pol 5' (DRC-2, 5', concentration 40): 37%
- % inhibition Apo pol 5' (DRC-2, 5', concentration 80): 19%
- % inhibition Apol 40' (DRC-2, 40', concentration 2.5): 23%
- % inhibition Apol 40' (DRC-2, 40', concentration 5): 47%
- % inhibition Apol 40' (DRC-2, 40', concentration 10): 64%
- % inhibition Apol 40' (DRC-2, 40', concentration 20): 65%
- % inhibition Apol 40' (DRC-2, 40', concentration 40): 62%
- % inhibition Apol 40' (DRC-2, 40', concentration 80): 51%
- % inhibition ApPOL 90' (DRC-2, 90', concentration 2.5): 20%
- % inhibition ApPOL 90' (DRC-2, 90', concentration 5): 45%
- % inhibition ApPOL 90' (DRC-2, 90', concentration 10): 66%
- % inhibition ApPOL 90' (DRC-2, 90', concentration 20): 69%
- % inhibition ApPOL 90' (DRC-2, 90', concentration 40): 68%
- % inhibition ApPOL 90' (DRC-2, 90', concentration 80): 59%
- % inhibition apPOL 180' (DRC-2, 180', concentration 2.5): 8%
- % inhibition apPOL 180' (DRC-2, 180', concentration 5): 34%
- % inhibition apPOL 180' (DRC-2, 180', concentration 10): 62%
- % inhibition apPOL 180' (DRC-2, 180', concentration 20): 70%
- % inhibition apPOL 180' (DRC-2, 180', concentration 40): 73%
- % inhibition apPOL 180' (DRC-2, 180', concentration 80): 67%
- % inhibition Apo pol 5' (conc. 5, 5', DRC-2): 37%
- % inhibition apPOL 180' (conc. 10, 180', DRC-2): 62%
- % inhibition Apo pol 5' (conc. 40, 5', DRC-2): 37%
- % inhibition Apol 40' (conc. 40, 40', DRC-2): 62%
- DNA Pol (primary screen value by plate and well): 78
- DNA Pol [1]: 78

SMILES: COc1ccc(NC(=O)Cn2ccc3c(=O)[nH]ccc32)cc1Cl [Molecule 10]
- IC50: 6.2 µM

SMILES: Cc1cccc(NC(=O)Cn2ccc3c(=O)[nH]ccc32)c1C [Molecule 11, O=C(Cn1ccc2c1cc[nH]c2=O)Nc1cccc(c1C)C]
- DNA Pol ('DNA Pol' of the 186 hits list (screen value)): 54
- % inhibition Apo pol 10' (DRC-1, conc 2.5): 3.616%
- % inhibition Apo pol 10' (DRC-1, conc 5): 26.2157%
- % inhibition Apo pol 10' (DRC-1, conc 10): 64.035%
- % inhibition Apo pol 10' (DRC-1, conc 20): 84.2642%
- % inhibition Apo pol 10' (DRC-1, conc 40): 89.6589%
- % inhibition Apo pol 10' (DRC-1, conc 80): 84.1772%
- % inhibition Apol 90' (DRC-1, 90', conc 2.5): 0.4643%
- % inhibition Apol 90' (DRC-1, 90', conc 5): 14.6206%
- % inhibition Apol 90' (DRC-1, 90', conc 10): 51.1257%
- % inhibition Apol 90' (DRC-1, 90', conc 20): 80.5216%
- % inhibition Apol 90' (DRC-1, 90', conc 40): 91.1147%
- % inhibition Apol 90' (DRC-1, 90', conc 80): 90.9413%
- % inhibition apPOL 180' (DRC-1, 180', conc 2.5): -2.306%
- % inhibition apPOL 180' (DRC-1, 180', conc 5): 3.486%
- % inhibition apPOL 180' (DRC-1, 180', conc 10): 34.4928%
- % inhibition apPOL 180' (DRC-1, 180', conc 20): 70.7317%
- % inhibition apPOL 180' (DRC-1, 180', conc 40): 89.3869%
- % inhibition apPOL 180' (DRC-1, 180', conc 80): 93.0322%
- % inhibition Apo pol 5' (DRC-2, 5', conc 2.5): 1.64%
- % inhibition Apo pol 5' (DRC-2, 5', conc 5): 23%
- % inhibition Apo pol 5' (DRC-2, 5', conc 10): 46%
- % inhibition Apo pol 5' (DRC-2, 5', conc 20): 49%
- % inhibition Apo pol 5' (DRC-2, 5', conc 40): 47%
- % inhibition Apo pol 5' (DRC-2, 5', conc 80): 39%
- % inhibition Apol 40' (DRC-2, 40', conc 2.5): 0.556%
- % inhibition Apol 40' (DRC-2, 40', conc 5): 28%
- % inhibition Apol 40' (DRC-2, 40', conc 10): 58%
- % inhibition Apol 40' (DRC-2, 40', conc 20): 67%
- % inhibition Apol 40' (DRC-2, 40', conc 40): 69%
- % inhibition Apol 40' (DRC-2, 40', conc 80): 66%
- % inhibition Apol 40' (DRC-2, 40', concentration 10): 58%
- % inhibition Apol 40' (DRC-2, 40', concentration 40): 69%
- % inhibition ApPOL 90' (DRC-2, 90', conc 2.5): -1.29%
- % inhibition ApPOL 90' (DRC-2, 90', conc 5): 24%
- % inhibition ApPOL 90' (DRC-2, 90', conc 10): 58%
- % inhibition ApPOL 90' (DRC-2, 90', conc 20): 70%
- % inhibition ApPOL 90' (DRC-2, 90', conc 40): 73%
- % inhibition ApPOL 90' (DRC-2, 90', conc 80): 72%
- % inhibition ApPOL 90' (DRC-2, 90', concentration 10): 58%
- % inhibition apPOL 180' (DRC-2, 180', conc 2.5): -8%
- % inhibition apPOL 180' (DRC-2, 180', conc 5): 13%
- % inhibition apPOL 180' (DRC-2, 180', conc 10): 50%
- % inhibition apPOL 180' (DRC-2, 180', conc 20): 69%
- % inhibition apPOL 180' (DRC-2, 180', conc 40): 77%
- % inhibition apPOL 180' (DRC-2, 180', conc 80): 77%
- % inhibition apPOL 180' (DRC-2, 180', concentration 20): 69%
- % inhibition apPOL 180' (DRC-2, 180', concentration 40): 77%
- % inhibition apPOL 180' (DRC-2, 180', concentration 80): 77%
- DNA Pol (primary screen value, "DNA Pol"): 54

SMILES: Cc1cccc(NC(=O)Cn2ccc3c(=O)[nH]ccc32)c1C [Molecule 11]
- IC50: 7.57 µM

SMILES: Cc1cccc(CC(=O)N2CCc3c(nc4cc(-c5ccccc5)[nH]n4c3=O)C2)c1 [Molecule 12, Cc1cccc(c1)CC(=O)N1CCc2c(C1)nc1n(c2=O)[nH]c(c1)c1ccccc1]
- % inhibition Apo pol 10' (DRC-1, concentration 2.5): 15%
- % inhibition Apo pol 10' (DRC-1, concentration 5): 48%
- % inhibition Apo pol 10' (DRC-1, concentration 10): 68%
- % inhibition Apo pol 10' (DRC-1, concentration 20): 81%
- % inhibition Apo pol 10' (DRC-1, concentration 40): 86%
- % inhibition Apo pol 10' (DRC-1, concentration 80): 83%
- % inhibition Apol 90' (DRC-1, 90', concentration 2.5): 3.59%
- % inhibition Apol 90' (DRC-1, 90', concentration 5): 28%
- % inhibition Apol 90' (DRC-1, 90', concentration 10): 50%
- % inhibition Apol 90' (DRC-1, 90', concentration 20): 69%
- % inhibition Apol 90' (DRC-1, 90', concentration 40): 81%
- % inhibition Apol 90' (DRC-1, 90', concentration 80): 85%
- % inhibition apPOL 180' (DRC-1, 180', concentration 2.5): -4%
- % inhibition apPOL 180' (DRC-1, 180', concentration 5): 13%
- % inhibition apPOL 180' (DRC-1, 180', concentration 10): 32%
- % inhibition apPOL 180' (DRC-1, 180', concentration 20): 55%
- % inhibition apPOL 180' (DRC-1, 180', concentration 40): 73%
- % inhibition apPOL 180' (DRC-1, 180', concentration 80): 82%
- % inhibition Apo pol 5' (DRC-2, 5', concentration 10 (unit not given)): 44%
- % inhibition Apo pol 5' (DRC-2, 5', concentration 40 (unit not given)): 48%
- % inhibition Apol 40' (DRC-2, 40', concentration 40 (unit not given)): 66%
- % inhibition ApPOL 90' (DRC-2, 90', concentration 20 (unit not given)): 66%
- % inhibition ApPOL 90' (DRC-2, 90', concentration 40 (unit not given)): 70%
- % inhibition apPOL 180' (DRC-2, 180', concentration 10 (unit not given)): 44%
- % inhibition apPOL 180' (DRC-2, 180', concentration 40 (unit not given)): 70%
- % inhibition apPOL 180' (DRC-2, 180', concentration 80 (unit not given)): 69%
- % inhibition Apo pol 5' (DRC-2, 5', concentration 2.5): 7%
- % inhibition Apo pol 5' (DRC-2, 5', concentration 5): 23%
- % inhibition Apo pol 5' (DRC-2, 5', concentration 10): 44%
- % inhibition Apo pol 5' (DRC-2, 5', concentration 20): 49%
- % inhibition Apo pol 5' (DRC-2, 5', concentration 40): 48%
- % inhibition Apo pol 5' (DRC-2, 5', concentration 80): 43%
- % inhibition Apol 40' (DRC-2, 40', concentration 2.5): 5.58%
- % inhibition Apol 40' (DRC-2, 40', concentration 5): 25%
- % inhibition Apol 40' (DRC-2, 40', concentration 10): 54%
- % inhibition Apol 40' (DRC-2, 40', concentration 20): 65%
- % inhibition Apol 40' (DRC-2, 40', concentration 40): 66%
- % inhibition Apol 40' (DRC-2, 40', concentration 80): 62%
- % inhibition ApPOL 90' (DRC-2, 90', concentration 2.5): 4.61%
- % inhibition ApPOL 90' (DRC-2, 90', concentration 5): 22%
- % inhibition ApPOL 90' (DRC-2, 90', concentration 10): 53%
- % inhibition ApPOL 90' (DRC-2, 90', concentration 20): 66%
- % inhibition ApPOL 90' (DRC-2, 90', concentration 40): 70%
- % inhibition ApPOL 90' (DRC-2, 90', concentration 80): 67%
- % inhibition apPOL 180' (DRC-2, 180', concentration 2.5): 2.3%
- % inhibition apPOL 180' (DRC-2, 180', concentration 5): 12%
- % inhibition apPOL 180' (DRC-2, 180', concentration 10): 44%
- % inhibition apPOL 180' (DRC-2, 180', concentration 20): 63%
- % inhibition apPOL 180' (DRC-2, 180', concentration 40): 70%
- % inhibition apPOL 180' (DRC-2, 180', concentration 80): 69%
- % inhibition Apo pol 10' (first dose-response, concentration 5 (unit not given)): 48%
- % inhibition Apo pol 10' (first dose-response, concentration 20 (unit not given)): 81%
- % inhibition Apol 90' (first dose-response, 90', concentration 20 (unit not given)): 69%
- % inhibition Apol 90' (first dose-response, 90', concentration 40 (unit not given)): 81%
- DNA Pol [1]: 49
- DNA Pol (primary screen value, head "DNA Pol", unit not given): 49

SMILES: Cc1cccc(CC(=O)N2CCc3c(nc4cc(-c5ccccc5)[nH]n4c3=O)C2)c1 [Molecule 12]
- IC50: 5.56 µM
